The source of these data is patent US11780827B2, “Substituted 3-phenoxyazetidin-1-yl-pyrazines” (Boehringer Ingelheim International GmbH, priority 2020, dated 2023).

The target in data set [1] is T1, human GPR52 (Homo sapiens, UniProt Q9Y2T5).
T1 construct: expressed in transfected cells; host or cells: CHO-K1
The experiment in a line: HTRF assay for direct cAMP measurement. The data set is classed as cell-based. The conditions noted are these: CHO-K1 cells stably expressing recombinant human GPR52, mean EC50. The method, then: Homogeneous Time-Resolved Fluorescence (HTRF) Assay for Direct cAMP Measurement.
HTRF cAMP assays were performed using commercially available assay kits according to the manufacturer's instructions (cAMP Dynamic 2 Assay Kit; #62AM4PEJ, Cisbio Bioassays, Bedford, Mass.). An aliquot of CHO-K1 cells stably expressing recombinant human GPR52 is thawed and resuspended in cell buffer (1×PBS (w/o Ca^2+/Mg^2+)) at a density of 4×10^5 cells per mL Test compounds were solubilized in DMSO to 10 mM stock solutions and serially diluted in DMSO using 6-fold dilutions to generate 8-point dose response curves. These serially diluted samples were then diluted 1:50 in compound dilution buffer (1×PBS (w/o Ca^2+/Mg^2+) containing 0.5 mM IBMX, 0.1% BSA) to achieve a 4× stock. The diluted compounds were transferred (5 μL per well) in duplicate to the 384-well assay plate (Optiplate #6007290, PerkinElmer, Waltham, Mass.). Both a positive (reference compound) and negative (non-stimulated vehicle) control are included in each assay run in column 23. The cell suspension was subsequently dispensed into the 384-well assay plates at 15 μL per well (6000 cells) such that the compound was diluted to 1×. […] After a one-hour incubation at room temperature, 10 μL of cAMP D2 reagent followed by 10 μL of cryptate reagent (provided in the Cisbio kit) was added to each well. Plates were then incubated at room temperature for one hour prior to reading. Time-resolved fluorescence measurements were collected on an EnVision® HTRF plate reader (PerkinElmer, Waltham, Mass.). Counts from the plate reader were fit to the cAMP standard curve included on each plate to determine the amount of cAMP in each test well. The % control was calculated based on the positive control set at […]. Dose-response curves were generated from the cAMP data and analyzed using a nonlinear least squares curve-fitting program to obtain EC50 values.

The target of data set [2] is T2, aldehyde oxidase (Homo sapiens, UniProt Q06278).
T2 construct: endogenous in cells; host or cells: cryopreserved primary human hepatocytes
T2 sequence (Q06278 1-1338): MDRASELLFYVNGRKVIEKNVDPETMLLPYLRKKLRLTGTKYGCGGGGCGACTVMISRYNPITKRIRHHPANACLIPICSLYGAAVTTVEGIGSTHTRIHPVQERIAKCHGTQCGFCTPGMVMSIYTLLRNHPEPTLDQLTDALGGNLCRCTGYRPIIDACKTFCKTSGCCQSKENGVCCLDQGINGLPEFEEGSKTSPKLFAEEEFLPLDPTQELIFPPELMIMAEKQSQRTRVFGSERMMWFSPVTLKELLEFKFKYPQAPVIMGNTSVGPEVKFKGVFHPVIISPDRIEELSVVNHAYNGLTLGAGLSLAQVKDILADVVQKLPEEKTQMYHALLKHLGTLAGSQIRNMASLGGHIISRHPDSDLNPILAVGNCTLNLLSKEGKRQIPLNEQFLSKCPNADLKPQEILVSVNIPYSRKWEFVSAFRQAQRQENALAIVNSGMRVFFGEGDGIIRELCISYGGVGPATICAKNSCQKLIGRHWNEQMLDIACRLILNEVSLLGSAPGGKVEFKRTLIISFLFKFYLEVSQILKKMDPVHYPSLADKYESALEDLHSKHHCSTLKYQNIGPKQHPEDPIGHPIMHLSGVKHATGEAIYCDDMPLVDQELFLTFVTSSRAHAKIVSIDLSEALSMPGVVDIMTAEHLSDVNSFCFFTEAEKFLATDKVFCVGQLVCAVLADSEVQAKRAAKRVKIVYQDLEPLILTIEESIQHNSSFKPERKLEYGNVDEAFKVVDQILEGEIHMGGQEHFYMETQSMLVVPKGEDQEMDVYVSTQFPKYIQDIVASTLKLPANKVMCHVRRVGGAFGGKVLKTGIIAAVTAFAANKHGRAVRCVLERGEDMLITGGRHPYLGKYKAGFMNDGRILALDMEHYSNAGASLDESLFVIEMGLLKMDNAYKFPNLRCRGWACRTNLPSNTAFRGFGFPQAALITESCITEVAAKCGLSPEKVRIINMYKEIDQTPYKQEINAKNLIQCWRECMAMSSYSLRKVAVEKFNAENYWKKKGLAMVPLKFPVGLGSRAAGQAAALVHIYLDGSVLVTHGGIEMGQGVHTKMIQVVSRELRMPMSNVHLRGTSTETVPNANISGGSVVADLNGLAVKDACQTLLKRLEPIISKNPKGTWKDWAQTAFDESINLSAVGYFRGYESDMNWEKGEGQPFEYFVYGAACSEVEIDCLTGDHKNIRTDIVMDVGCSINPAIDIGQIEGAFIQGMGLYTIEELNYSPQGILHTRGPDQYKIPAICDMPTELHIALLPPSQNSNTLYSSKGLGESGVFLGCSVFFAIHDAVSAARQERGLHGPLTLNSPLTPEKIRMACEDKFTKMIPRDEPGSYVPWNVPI
Briefly: In vitro metabolite profiling in primary human hepatocytes with or without hydralazine. The format is in vitro ADME. Particulars: for % Parent of drug-related material: 1 μM test compound; for Contribution of AO to oxidative metabolism: sum of AO-formed metabolites. As for the experimental part: (§1) In vitro metabolite profiling to evaluate the involvement of aldehyde oxidase in addition to CYP-mediated metabolic pathways is based on the semiquantitative analysis of the formation of oxygenated metabolites in primary human hepatocytes and the reduction in their formation in presence of the specific aldehyde oxidase inhibitor hydralazine. If respective hydralazine-inhibitable metabolites are also formed in human liver cytosol incubations in the absence of any cofactors, involvement of aldehyde oxidase in the metabolism of the respective compound is considered likely.
The involvement of aldehyde oxidase in metabolic transformation of the test compound is investigated using primary human hepatocytes in suspension in presence or absence of the specific aldehyde oxidase inhibitor hydralazine. After recovery from cryopreservation, human hepatocytes are incubated in Dulbecco's modified eagle medium supplemented with 3.5 μg glucagon/500 ml, 2.5 mg insulin/500 ml and 3.75 mg/500 ml hydrocortisone) containing 5% human serum.
Following a 30 min preincubation in a cell culture incubator (37° C., 10% CO2) with or without 50 μM hydralazine, test compound solution is spiked into the hepatocyte suspension to obtain a final cell density of 1.0*10^6 to 4.0*10^6 cells/mi (depending on the metabolic turnover rate of the compound observed with primary human hepatocytes), a final test compound concentration of 1 μM, and a final DMSO concentration of 0.05%.
The cells are incubated for six hours (incubator, horizontal shaker) and samples are removed from the incubation after 0, 0.5, 1, 2, 4 or 6 hours, depending on the metabolic turnover rate. Samples are quenched with acetonitrile and pelleted by centrifugation. The supernatant is transferred to a 96-deepwell plate, evaporated under nitrogen and resuspended prior to bioanalysis by liquid chromatography-high resolution mass spectrometry for identification of putative metabolites.

Data set [3] deals with T2, aldehyde oxidase. The experiment in a line: Metabolite formation in pooled human liver cytosol incubations without cofactors. The format is in vitro ADME. More on the design: key: yes: Metabolite is formed in presence of human liver cytosol in the absence of cofactors as indication of aldehyde oxidase mediated metabolism; Metabolite is not detected in cytosol incubations. Particulars: human liver cytosol 5 mg/ml, 10 μM test compound, 60 min, metabolite of the same line. The method, then: as §1
The involvement of aldehyde oxidase in the metabolic transformation of the test compound is confirmed at 37° C. with pooled human liver cytosol fractions. The incubations, conducted at a final incubation volume of 60 μl per time point, are composed of phosphate buffer (100 mM, pH 7.4), magnesium chloride (5 mM), and human liver cytosol (5 mg/ml). Following a short preincubation period at 37° C., the reactions are initiated by addition of the test compound, resulting in a final concentration of 10 μM. After 0 and 60 minutes, the incubations are terminated by transferring an aliquot into organic solvent, followed by centrifugation (10000 g, 5 min). The resulting supernatant is used for bioanalysis by liquid chromatography-high resolution mass spectrometry for identification of putative metabolites.

T1 sequence (Q9Y2T5 whole entry): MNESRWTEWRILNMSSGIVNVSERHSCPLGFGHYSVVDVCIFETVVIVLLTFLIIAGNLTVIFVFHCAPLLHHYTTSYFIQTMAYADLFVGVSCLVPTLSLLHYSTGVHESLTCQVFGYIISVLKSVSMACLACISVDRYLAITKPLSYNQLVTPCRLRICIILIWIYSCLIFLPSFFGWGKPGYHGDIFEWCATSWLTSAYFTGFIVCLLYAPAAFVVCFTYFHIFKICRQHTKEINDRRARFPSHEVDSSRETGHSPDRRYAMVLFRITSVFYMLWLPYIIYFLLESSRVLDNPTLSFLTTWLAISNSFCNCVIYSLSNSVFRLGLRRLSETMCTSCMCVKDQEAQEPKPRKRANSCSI

With `O=C(Nc1ccnnc1)c1nccnc1N1CC(Oc2cc(F)c(F)c(F)c2)C1` [Example 4], in data set [1], the EC50 turned out to be 5 nM. In data set [2], the “% Parent of drug-related material” value is 94% and the “Contribution of AO to oxidative metabolism” value (“Contribution of AO” for short) came out at 53%. In data set [3], the “Formation in human liver cytosol incubations [yes/no]” value (“Formation … [yes/no]” for short) was “yes”.

As to `Cc1cc(NC(=O)c2nccnc2N2CC(Oc3cc(F)cc(F)c3)C2)cnn1` [Example 13], the EC50 in data set [1] came out at 9 nM. In addition, in data set [2], the “% Parent of drug-related material” value turned out to be 15% and the “Contribution of AO” value is recorded as 15%. Further, the “Formation … [yes/no]” value in data set [3] is given as “yes”.

Turning to `Cc1cc(NC(=O)c2nccnc2N2CC(Oc3cc(F)c(F)c(F)c3)C2)cnn1` [Example 15], the EC50 in data set [1] came to 5 nM. In data set [2], the “% Parent of drug-related material” value is listed as 71% and the “Contribution of AO” value is on record as 71%. Further, in data set [3], the “Formation … [yes/no]” value is given as “yes”.

With `CCc1cc(NC(=O)c2nccnc2N2CC(Oc3ccc(F)c(F)c3)C2)cnn1` [Example 21], the EC50 in data set [1] was 2 nM. For the same compound, in data set [2], the “% Parent of drug-related material” value is 80% and the “Contribution of AO” value was found to be 67%. For the same compound, the “Formation … [yes/no]” value in data set [3] is given as “yes”.

As to `Cc1cc(NC(=O)c2nccnc2N2CC(Oc3ccc(F)c(F)c3)C2)ncn1` [Example 29], the EC50 in data set [1] stood at 5 nM. In data set [2], the “% Parent of drug-related material” value came to 96% and the “Contribution of AO” value is 36%. The “Formation … [yes/no]” value in data set [3] was “yes”.

On to `Cc1cc(NC(=O)c2nccnc2N2CC(Oc3cc(F)cc(C(F)F)c3)C2)cnn1` [Example 11], for which the EC50 in data set [1] amounted to 6 nM. Also, in data set [2], the “% Parent of drug-related material” value is 86% and the “Contribution of AO” value came to 28%. In addition, the “Formation … [yes/no]” value in data set [3] is given as “yes”.

For the compound `Cc1cc(NC(=O)c2nccnc2N2CC(Oc3ccc(F)c(F)c3)C2)cnn1` [Example 12], the EC50 in data set [1] worked out at 3 nM. For the same compound, in data set [2], the “% Parent of drug-related material” value amounted to 93% and the “Contribution of AO” value is given as 56%. For the same compound, the “Formation … [yes/no]” value in data set [3] is “yes”.

Turning to `O=C(Nc1ccnnc1)c1nccnc1N1CC(Oc2ccc(F)c(F)c2)C1` [Example 5], the EC50 in data set [1] was 10 nM.

For the compound `CCc1cc(NC(=O)c2nccnc2N2CC(Oc3cc(F)c(F)c(Cl)c3)C2)ncn1` [Example 38], the EC50 in data set [1] stood at 9 nM.

For the compound `Cc1cc(NC(=O)c2nccnc2N2CC(Oc3cc(F)c(F)c(Cl)c3)C2)cnn1` [Example 14], the EC50 in data set [1] came to 4 nM. In addition, in data set [2], the “% Parent of drug-related material” value amounted to 94% and the “Contribution of AO” value was found to be 22%. The “Formation … [yes/no]” value in data set [3] is “yes”.

In the case of `CCc1cc(NC(=O)c2nccnc2N2CC(Oc3ccc(F)c(Cl)c3)C2)cnn1` [Example 19], in data set [1], the EC50 came to 4 nM.

With `Cc1cc(NC(=O)c2nccnc2N2CC(Oc3cc(F)cc(Cl)c3)C2)cnn1` [Example 10], the EC50 in data set [1] amounted to 4 nM. Also, in data set [2], the “% Parent of drug-related material” value was 91% and the “Contribution of AO” value is listed as 22%. The “Formation … [yes/no]” value in data set [3] is listed as “yes”.

For `Cc1cc(NC(=O)c2nccnc2N2CC(Oc3cc(F)cc(C(F)(F)F)c3)C2)cnn1` [Example 9], in data set [1], the EC50 was determined as 14 nM.

In the case of `CCc1cc(NC(=O)c2nccnc2N2CC(Oc3cc(F)cc(F)c3)C2)ncn1` [Example 33], the EC50 in data set [1] came out at 10 nM.

`Cc1cc(NC(=O)c2nccnc2N2CC(Oc3ccc(F)c(Cl)c3)C2)ncn1` [Example 25]: in data set [1], the EC50 came out at 4 nM.
